The record followed here is article PMC11618975, “Design and Development of Novel Hybrids Based on Pyrrolo[2,1‐f][1,2,4]Triazine and 1‐(Methylpiperidin‐4‐yl) Aniline–Based Analogs: Exploring the Utility as Anticancer Agents via MERTK Inhibition” (Chemical Biology & Drug Design, 2024).

“Also recorded” adds a separate entry of the source. Like-named read-outs stand apart in the source and are kept apart here.

Data set [1] is described as follows: Human liver microsomal stability (DMPK). Format: in vitro ADME. Conditions: for % parent remaining: human liver microsomes 0.5 mg/mL, 1 μM compound, NADPH, 30 min; for half-life at 1 μM: human, liver microsomes, pH 7.4, human liver microsomes, read-out: T 1/2 (HLM); for microsomal CLint at 1 μM: pH 7.4, human liver microsomes, read-out: CLint (HLM). On the procedure:
(§1) To understand the intrinsic pharmacokinetics of synthetics and their stability in relation to human liver microsomal (HLM) and mouse liver microsomal (MLM), we performed the DMPK studies.
(§2) The DMPK evaluation involves multiple reagents and instruments. The chemical and reagents include synthesized target molecules (at a concentration of 1–3 mg), DMSO (HPLC grade), PBS (pH = 7.4), NADPH, and liver microsomes (human and mouse) procured from Thermo. The instruments include Nexera X2 UPLC with an AB Sciex QTrap 4500 MS/MS detector (Shimadzu), single and multichannel micropipette (Eppendorf USA and Thermo), a 96‐well plate (1 mL capacity with deep wells) vortex mixer (Tarsons), centrifuge tubes (Tarsons) water bath (MRC), and a centrifuge (Thermo). The fresh stock solutions (10 mM) were prepared and incubations were carried out in duplication. Each well‐comprised potassium phosphate buffer (100 mM, pH 7.4) with 0.5 mg/mL microsome, NADPH (1 mM), and target molecule (1 μM). After 30 min incubation (37°C), the aliquots were taken at 0 and 30 min and quenched with chilled acetonitrile comprising Terfenadine as internal standard. The samples were centrifuged at 4000 rpm at 4°C, and the supernatant was subjected to LC–MS/MS for analysis. The experiment was used to determine the half‐life of the compound with the help of peak area ratio relative to the internal standard.

Data set [2] can be described thus: Mouse liver microsomal stability (DMPK). Type of data set: in vitro ADME. Conditions: for % parent remaining: mouse liver microsomes 0.5 mg/mL, 1 μM compound, NADPH, 30 min; for half-life at 1 μM: mouse, liver microsomes, pH 7.4, mouse liver microsomes, read-out: T 1/2 (MLM); for microsomal CLint at 1 μM: pH 7.4, mouse liver microsomes, read-out: CLint (MLM). The procedure:
as §1, §2

The test system of the next data set is A549 lung cancer cells. Description: Cell viability (resazurin) assay, A549. Type of data set: cell-based. Conditions: read-out: IC50 values (mean ± SD) A549. On the procedure:
(§3) This includes lung cancer cells (A549) and breast cancer cells (MCF‐7 and MDA‐MB‐231). […] The remaining compounds were also found to portray the inhibition at a low micromolar range and better than the cisplatin, employed as a positive control during the experiment.
(§4) The cell viability assay of new compounds was performed against A549, MCF‐7, and MDA‐MB‐231 carcinoma cell lines. The cells (2500 cells/well) were seeded in a 96‐well plate using DMEM media (Gibco by Life Technologies) consisting of 10% FBS and subjected to incubation at 37°C for 24 h in 5% CO2 in a Nuaire incubator (humidified) for adherence to surface and growth. After 24 h, cells were subjected to treatment against target compounds (1K1‐1K5) at different concentrations (final concentrations ranging from 0.01–30 μM) and left for incubation for 72 h at the same conditions as mentioned above. The same procedure was repeated after 72 h after replacing the remaining test compound with fresh media and incubating treated cells for a further 48 h. After incubation, the remaining compounds with media were removed followed by washing with fresh media and the addition of 100 μL of resazurin (1 mM, Sigma). The 96‐well plate was incubated for 4 h at room temperature. A multimode microplate reader was used to record fluorescence at 535 nm (excitation) and 590 nm (emission) wavelengths. Background fluorescence was subtracted for calculating final results and avoiding any interference and normalized against vehicle control (DMSO treated cells) to calculate final cell viability. Cell viability (percentage) was used to calculate the IC50 values of the target compounds using fitting the curve to the “four‐parameter variable slope logistic model” using Prism Graph Pad (Kathuria et al. [2023]; Rani et al. [2023]).

The test system of data set [3] is MDA-MB-231 breast cancer cells. Description: Cell viability (resazurin) assay, MDA-MB-231. Format: cell-based. Conditions: MDA-MB-231 cells, read-out: IC50 values (mean ± SD) MDA-MB-231. The procedure: as §3, §4
The subject of data set [4] is MCF-7 breast cancer cells. Briefly: Cell viability (resazurin) assay, MCF-7. Type of data set: cell-based. Conditions: read-out: IC50 values (mean ± SD) MCF-7. The procedure:
as §3, §4

A further data set has as its target T1, MERTK (cMER) (Homo sapiens, UniProt Q12866).
T1 sequence (Q12866 21-999): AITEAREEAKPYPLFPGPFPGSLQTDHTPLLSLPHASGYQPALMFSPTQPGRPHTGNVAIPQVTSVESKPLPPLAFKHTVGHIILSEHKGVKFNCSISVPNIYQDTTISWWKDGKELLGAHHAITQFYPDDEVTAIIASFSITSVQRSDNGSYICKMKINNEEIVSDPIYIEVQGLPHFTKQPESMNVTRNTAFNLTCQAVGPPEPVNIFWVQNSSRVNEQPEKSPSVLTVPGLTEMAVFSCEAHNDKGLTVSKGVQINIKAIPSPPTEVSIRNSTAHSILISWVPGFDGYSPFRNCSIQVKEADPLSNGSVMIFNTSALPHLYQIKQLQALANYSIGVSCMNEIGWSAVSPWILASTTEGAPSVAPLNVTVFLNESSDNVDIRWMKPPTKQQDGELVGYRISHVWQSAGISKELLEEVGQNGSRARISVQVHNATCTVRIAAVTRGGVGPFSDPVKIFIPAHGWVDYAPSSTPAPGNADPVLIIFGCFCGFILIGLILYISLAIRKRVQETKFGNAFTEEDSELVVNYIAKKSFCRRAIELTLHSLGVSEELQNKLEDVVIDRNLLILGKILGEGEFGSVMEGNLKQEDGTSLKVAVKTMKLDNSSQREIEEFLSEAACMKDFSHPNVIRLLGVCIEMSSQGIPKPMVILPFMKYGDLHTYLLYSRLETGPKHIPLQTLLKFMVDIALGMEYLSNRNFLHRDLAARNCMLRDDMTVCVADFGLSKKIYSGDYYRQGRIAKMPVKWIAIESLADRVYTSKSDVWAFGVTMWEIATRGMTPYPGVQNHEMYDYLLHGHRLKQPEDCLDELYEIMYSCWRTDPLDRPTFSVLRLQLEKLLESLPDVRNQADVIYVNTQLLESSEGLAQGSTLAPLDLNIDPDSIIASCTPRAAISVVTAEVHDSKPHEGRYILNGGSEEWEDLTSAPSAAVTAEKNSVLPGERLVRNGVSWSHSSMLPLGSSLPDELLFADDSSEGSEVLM
Briefly: MERTK kinase inhibition assay (Z-Lyte kinase assay kit). Format: biochemical. On the procedure: All the synthesized molecules were assessed for their kinase inhibitory activity against MERTK using a kinase inhibition assay.
[…] (z‐Lyte kinase assay kit‐tyr4 peptide) was utilized to determine MERTK inhibitory activity as per the protocol supplied by the supplier along with the kit. Briefly, the mixture of MERTK (cMER) / Tyr 02 (2X) was made using HEPES buffer (50 mM, pH 7.5) comprising polyoxyethylene lauryl ether solution (0.01%), MgCl2 (10 mM), MnCl2 (4 mM), EGTA (1 mM), and DTT (2 mM). The kinase solution of 10 μL was used as the final reaction solution. In the next step, the target molecules in varying concentrations were incubated with kinase solution for 1 h. Development reagent A (5 μL) of 1:128 dilution was added after the incubation period. The fluorescence was measured at Ex/Em 400, 445, and 520 nm using a microplate reader for the determination of final percentage inhibition. The percent phosphorylation was determined via the use of the emission ratio calculated from the division of Coumarin Emission (at 445 nm) to fluorescein emission (at 520 nm). %phosphorylation=1−Emission ratio×F100%−C100%/C0%−C100%+Emission ratioF100%−F0%

Setting [5] is: Homo sapiens, MCF7, MCF-7 cells.

For `CCOc1ccc(-c2cc3c(Nc4ccc(C5CCN(C)CC5)c(F)c4)ncnn3c2)cc1OC` [1K5, 6‐(4‐Ethoxy‐3‐Methoxyphenyl)‐N‐(3‐Fluoro‐4‐(1‐Methylpiperidin‐4‐yl)phenyl)pyrrolo[2,1‐f][1,2,4]Triazin‐4‐Amine], the values for the % parent remaining in data set [1] and in data set [2] were 94.9% and 79.7%, respectively. Also, the half-life at 1 μM in data set [1] is 6.61 h; in data set [2] it was 1.54 h. Further, the microsomal CLint at 1 μM in data set [1] worked out at 3 µL/min/mg; in data set [2] it was 15 µL/min/mg. The IC50 is 360 ± 19 nM in the data set on A549 lung cancer cells (Homo sapiens), 800 ± 11 nM in data set [3] (Homo sapiens) and 420 ± 17 nM in data set [4] (setting [5]). For the same compound, the “inhibition of MERTK” value against MERTK (cMER) (1 and 10 μM test concentrations) was “approx. 42%”. Further, the “MERTK inhibition compared with positive control staurosporine” value on MERTK (cMER) (listed as IK5) was “comparable inhibition to positive control staurosporine; also recorded: comparable inhibitory potential to the positive control drug staurosporine”.
With `N.N.[Cl][Pt][Cl]` [Cisplatin, cisplatin, reference compound], the IC50 was determined as 5860 ± 9 nM with A549 lung cancer cells, 5420 ± 90 nM in data set [3] and 4930 ± 130 nM in data set [4] (MCF-7 cells).
With `CCOc1c(Cl)cc(-c2cc3c(Nc4ccc(C5CCN(C)CC5)c(F)c4)ncnn3c2)cc1OC` [1K2, 6‐(3‐Chloro‐4‐Ethoxy‐5‐Methoxyphenyl)‐N‐(3‐Fluoro‐4‐(1‐Methylpiperidin‐4‐yl)phenyl)pyrrolo[2,1‐f][1,2,4]Triazin‐4‐Amine], the figures for the % parent remaining in data set [1] and in data set [2] were 82.8% and 83.4%, respectively. Further, the half-life at 1 μM in data set [1] came to 1.83 h; in data set [2], 1.9 h. The microsomal CLint at 1 μM came to 13 µL/min/mg in data set [1] and 12 µL/min/mg in data set [2]. For the same compound, the IC50 in the data set on A549 lung cancer cells (Homo sapiens) was 1180 ± 19 nM; in data set [3] (Homo sapiens) it was 1700 ± 11 nM; in data set [4] (setting [5]) it was 440 ± 15 nM.
For `CN1CCC(c2ccc(Nc3ncnn4cc(-c5cc(F)c(F)c(F)c5)cc34)cc2F)CC1` [1K1, N‐(3‐Fluoro‐4‐(1‐Methylpiperidin‐4‐yl)phenyl)‐6‐(3,4,5‐trifluorophenyl)pyrrolo[2,1‐f][1,2,4]Triazin‐4‐Amine], the values for the % parent remaining in data set [1] and in data set [2] were 71.7% and 70%, respectively. For the same compound, the results for the half-life at 1 μM in data set [1] and in data set [2] were 1.04 h and 0.972 h, respectively. For the same compound, the microsomal CLint at 1 μM was 22 µL/min/mg in data set [1] and 24 µL/min/mg in data set [2]. Moreover, the values for the IC50 (with A549 lung cancer cells (Homo sapiens); in data set [3] (Homo sapiens); in data set [4] (setting [5])) were 8630 ± 21 nM, 4020 ± 15 nM and 1280 ± 14 nM, respectively.
Turning to `CN1CCC(c2ccc(Nc3ncnn4cc(-c5ccc(C(C)(C)C)cc5)cc34)cc2F)CC1` [1K3, 6‐(4‐(Tert‐butyl)phenyl)‐N‐(3‐Fluoro‐4‐(1‐Methylpiperidin‐4‐yl)phenyl)pyrrolo[2,1‐f][1,2,4]Triazin‐4‐Amine], the values for the % parent remaining in data set [1] and in data set [2] were 65.7% and 57%, respectively. Also, the half-life at 1 μM in data set [1] stood at 0.615 h; in data set [2], 0.823 h. Further, the microsomal CLint at 1 μM in data set [1] came out at 28 µL/min/mg; in data set [2] it was 38 µL/min/mg. Moreover, the IC50 with A549 lung cancer cells (Homo sapiens) came to 1440 ± 17 nM; in data set [3] (Homo sapiens), 4060 ± 19 nM; in data set [4] (setting [5]), 1420 ± 21 nM.
As to `COc1cc(-c2cc3c(Nc4ccc(C5CCN(C)CC5)c(F)c4)ncnn3c2)cc(Cl)c1F` [1K4, 6‐(3‐Chloro‐4‐Fluoro‐5‐Methoxyphenyl)‐N‐(3‐Fluoro‐4‐(1‐Methylpiperidin‐4‐yl)phenyl)pyrrolo[2,1‐f][1,2,4]Triazin‐4‐Amine], the % parent remaining was found to be 75.8% in data set [1] and 91.7% in data set [2]. Also, the half-life at 1 μM in data set [1] amounted to 1.25 h; in data set [2], 3.97 h. For the same compound, the microsomal CLint at 1 μM in data set [1] stood at 18 µL/min/mg; in data set [2], 6 µL/min/mg. Further, the IC50 in the data set on A549 lung cancer cells (Homo sapiens) turned out to be 890 ± 11 nM; in data set [3] (Homo sapiens) it was 1470 ± 14 nM; in data set [4] (setting [5]), 1140 ± 11 nM.
